Measurements reported in patent publication US20200308620A1, “PREDICTING TUMOR SPECIFICITY OF TARGETED THERAPEUTICS USING ATOMIC FORCE MICROSCOPY (AFM)” (Children's Medical Center Corporation, priority 2017, published 2020).
Converted amounts (≈) assume the structure as drawn.

Tests used:
[1] = test system: MDA-MB-231 cells; test: In vitro cytotoxicity (cell viability) assay; type: cell-based, human; settings: MDA-MB-231, Dox concentration, treated 4 hours, grown 48 hours
Method: In vitro cytotoxicity of ICAM-Dox-LPs on TNBC cells was evaluated using a cell viability assay. Five thousand cells (MDA-MB-231, MDA-MB-436, and MDA-MB-157) were seeded in each well of a 96 well plate and incubated for 24 hours. Cells were treated with (1) ICAM-LP without Dox; (2) Free Dox; (3) non-specific IgG-Dox-LPs and (4) ICAM-Dox-LPs for 4 hours. Cells were rinsed twice with PBS and grown for 48 hours. Cell viability was determined by a Dojindo cell counting kit using the manufacturer's protocol (Rockville, Md.).

[2] = test system: patient-derived NHL B cells; settings: cited from earlier work
[3] = test system: normal red blood cells; settings: Li et al.; cited from earlier work
[4] = test system: ICAM1 expression on MDA-MB-231 cell surface; test: Flow cytometric analysis of ICAM1 surface expression pre- and post-MCD treatment; type: cell-based, human; settings: MDA-MB-231, pre- and post-MCD treatment
Excerpt: In addition to the overexpression level, the organization of antigens on the cell membrane is another key factor driving differences in antibody-antigen binding behavior^11. AFM-detected adhesive events were also used to spatially map the binding forces on MDA-MB-231 (FIG. 2E) and MCF10A (FIG. 2F) cell surface. […] These “hot-spots” are predicted to be the primary binding sites for ICAM1 antibody-directed nanomedicine due to the high binding forces. ICAM1 molecules may be enriched in membrane lipid rafts of MDA-MB-231 cells to facilitate functional signaling^22. […] In order to determine whether ICAM1 adhesion forces are dependent on the organization of ICAM1 molecules in lipid rafts on the cell membrane, both MDA-MB-231 and MCF10A cells were treated with methyl-beta-cyclodextrin (MCD), a cholesterol-depleting drug that disrupts lipid rafts, and then the average binding force was re-measured. […]
10^6 cells were collected and rinsed twice through suspension-spin cycles. […] Cells were rinsed with 1% BSA in PBS three times, resuspended in PBS, and evaluated by a BD FACSCalibur flow cytometer (BD Biosciences). Quantification of cell surface antigen was determined with reference to Quantum Simply Cellular microbeads, using the protocol provided by the manufacturer.

COc1cccc2c1C(=O)c1c(O)c3c(c(O)c1C2=O)C[C@@](O)(C(=O)CO)C[C@@H]3O[C@H]1C[C@H](N)[C@H](O)[C@H](C)O1 [free Dox, doxorubicin]
IC50 (cytotoxicity) [1]: 7.4 µg/mL (≈ 13.6 µM)

Rituximab: FDA-approved CD20 antibody for Non-Hodgkin's Lymphoma treatment
binding force difference (NHL B cells minus normal red blood cells) ([2]; NHL B cells minus normal red blood cells): 33 pN
binding force ([2]; patient-derived NHL B cells, Li et al.): 54±34 pN
binding force [3]: 21±19 pN

methyl-beta-cyclodextrin [MCD]
effect on average ICAM1 expression on cell surface [4]: did not affect
